The assay deals with T1, Human HPK1, catalytic domain (Homo sapiens, UniProt Q92918).
T1 construct: purchased Carna
T1 sequence (Q92918 1-346): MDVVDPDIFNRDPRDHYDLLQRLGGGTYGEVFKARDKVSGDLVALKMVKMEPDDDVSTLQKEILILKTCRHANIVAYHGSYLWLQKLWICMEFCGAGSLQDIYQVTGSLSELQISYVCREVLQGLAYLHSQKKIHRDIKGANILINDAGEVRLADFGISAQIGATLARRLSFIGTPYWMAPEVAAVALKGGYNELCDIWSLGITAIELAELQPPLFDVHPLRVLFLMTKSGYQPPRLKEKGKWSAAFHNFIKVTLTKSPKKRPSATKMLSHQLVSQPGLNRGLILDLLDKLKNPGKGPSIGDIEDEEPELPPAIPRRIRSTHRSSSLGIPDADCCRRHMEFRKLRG
As to the kind of experiment: HPK1-SLP76 TR-FRET assay. In kind it is biochemical. The conditions noted are these: 75 pM HPK1, 10 uM ATP, 10 nM SLP76, 30 min compound pre-incubation. Background: Time-resolved FRET reads energy transfer from a long-lived donor to a nearby acceptor.

Usually IC50 stands for the concentration needed to halve the response being measured.

Compound `COc1cc2c(cc1Nc1ncc(C(N)=O)c(N[C@H]3C[C@H]4CC[C@@H](C3)N4C)n1)CN(C)CC2` [Example 26-26, 2-[(6-methoxy-2-methyl-1,2,3,4-tetrahydroisoquinolin-7-yl)amino]-4-{[(1R,3r,5S)-8-methyl-8-azabicyclo[3.2.1]octan-3-yl]amino}pyrimidine-5-carboxamide] came in with an IC50 of 3.31 nM.

In the case of `CCOc1ccccc1Nc1nc(Nc2cc3c(cc2OC)CCN(C)C3)ncc1C(N)=O` [Example 7-112, 4-[(2-ethoxyphenyl)amino]-2-[(6-methoxy-2-methyl-1,2,3,4-tetrahydroisoquinolin-7-yl)amino]pyrimidine-5-carboxamide], the IC50 came out at 0.03 nM.

Consider `NC(=O)c1cnc(Nc2ccc(F)cc2F)nc1Nc1cccc2c1CCNC2=O` [Example 25-17, 2-[(2,4-difluorophenyl)amino]-4-[(1-oxo-1,2,3,4-tetrahydroisoquinolin-5-yl)amino]pyrimidine-5-carboxamide], for which the midpoint of inhibition, the IC50, lay at 333 nM.

With `COc1cc2c(cc1Nc1ncc(C(N)=O)c(NCc3ccccc3)n1)CN(C)CC2` [Example 26-36, 4-(benzylamino)-2-[(6-methoxy-2-methyl-1,2,3,4-tetrahydroisoquinolin-7-yl)amino]pyrimidine-5-carboxamide], the midpoint of inhibition, the IC50, lay at 6.05 nM.

On to `COc1cc2c(cc1Nc1ncc(C(N)=O)c(Nc3c(C)nn(C)c3C)n1)CN(C)CC2` [Example 7-80, 2-((6-methoxy-2-methyl-1,2,3,4-tetrahydroisoquinolin-7-yl)amino)-4-((1,3,5-trimethyl-1H-pyrazol-4-yl)amino)pyrimidine-5-carboxamide], for which the IC50 was 0.91 nM.

On to `COc1cc2c(cc1Nc1ncc(C(N)=O)c(Nc3ccccc3C[C@@H](O)c3ccccc3)n1)CN(C)CC2` [Example 13-10, 4-({2-[(2R)-2-hydroxy-2-phenylethyl]phenyl}amino)-2-[(6-methoxy-2-methyl-1,2,3,4-tetrahydroisoquinolin-7-yl)amino]pyrimidine-5-carboxamide], for which half-maximal inhibition (IC50) required 326 nM.

`COc1cc2c(cc1Nc1ncc(C(N)=O)c(Nc3ccccc3C(O)(C(F)(F)F)C(F)(F)F)n1)CN(C)CC2` [Example 7-97, 4-{[2-(1,1,1,3,3,3-hexafluoro-2-hydroxypropan-2-yl)phenyl]amino}-2-[(6-methoxy-2-methyl-1,2,3,4-tetrahydroisoquinolin-7-yl)amino]pyrimidine-5-carboxamide] registered a concentration for half-maximal inhibition (IC50) of 0.23 nM.

As for `COc1cc2c(cc1Nc1ncc(C(N)=O)c(Nc3ccccc3Br)n1)CN(C1COC1)CC2` [Example 9-2, 4-[(2-bromophenyl)amino]-2-{[6-methoxy-2-(oxetan-3-yl)-1,2,3,4-tetrahydroisoquinolin-7-yl]amino}pyrimidine-5-carboxamide], the IC50 worked out at 1.42 nM.

`CS(=O)(=O)c1ccc(Nc2ncc(C(N)=O)c(Nc3c(F)cccc3CO)n2)cc1` [Example 7-65, 4-{[2-fluoro-6-(hydroxymethyl)phenyl]amino}-2-{[4-(methylsulfonyl)phenyl]amino}py-rimidine-5-carboxamide]: half-maximal inhibition (IC50) required 91.5 nM.

With `COc1cc2c(cc1Nc1ncc(C(N)=O)c(NC3CCC(C(F)(F)F)CC3)n1)CN(C)CC2` (centres unmarked) [Example 26-16, 2-[(6-methoxy-2-methyl-1,2,3,4-tetrahydroisoquinolin-7-yl)amino]-4-{[4-(trifluoromethyl)cyclohexyl]amino}pyrimidine-5-carboxamide], the IC50 stood at 11.9 nM.

`COc1cc2c(cc1Nc1ncc(C(N)=O)c(NCc3ccccc3OC(F)(F)F)n1)CN(C)CC2` [Example 26-18, 2-[(6-methoxy-2-methyl-1,2,3,4-tetrahydroisoquinolin-7-yl)amino]-4-({[2-(trifluoromethoxy)phenyl]methyl}amino)pyrimidine-5-carboxamide] gave an IC50 of 0.57 nM.

With `Cn1cc(Nc2ncc(C(N)=O)c(Nc3cccc4c3CCNC4=O)n2)cn1` [Example 7-44, 2-[(1-methyl-1H-pyrazol-4-yl)amino]-4-[(1-oxo-1,2,3,4-tetrahydroisoquinolin-5-yl)amino]pyrimidine-5-carboxamide], the half-inhibitory concentration (IC50) was 4.69 nM.

On to `NC(=O)c1cnc(Nc2ccc3c(c2)COC3=O)nc1N[C@H](CO)c1ccccc1` [Example 26-44, 4-{[(1S)-2-hydroxy-1-phenylethyl]amino}-2-[(1-oxo-1,3-dihydro-2-benzofuran-5-yl)amino]pyrimidine-5-carboxamide], for which the IC50 worked out at 92.1 nM.

`COc1ccc(S(C)(=O)=O)cc1Nc1ncc(C(N)=O)c(Nc2cccc3c2CCN(C)C3)n1` [Example 7-61, 2-{[2-methoxy-5-(methylsulfonyl)phenyl]amino}-4-[(2-methyl-1,2,3,4-tetrahydroisoquinolin-5-yl)amino]pyrimidine-5-carboxamide] gave an IC50 of 108 nM.

As for `COc1cc2c(cc1Nc1ncc(C(N)=O)c(Nc3ccc(F)cc3F)n1)CN(C)CC2` [Example 4-10, 4-[(2,4-difluorophenyl)amino]-2-[(6-methoxy-2-methyl-1,2,3,4-tetrahydroisoquinolin-7-yl)amino]pyrimidine-5-carboxamide], inhibition was half-maximal at 1.34 nM (IC50).

In turn, `COc1cc2c(cc1Nc1ncc(C(N)=O)c(N[C@@H]3CCCC[C@H]3CO)n1)CN(C)CC2` [Example 26-32, 4-{[(1R,2R)-2-(hydroxymethyl)cyclohexyl]amino}-2-[(6-methoxy-2-methyl-1,2,3,4-tetrahydroisoquinolin-7-yl)amino]pyrimidine-5-carboxamide] displayed an IC50 of 1.02 nM.

As for `COc1cc2c(cc1Nc1ncc(C(N)=O)c(Nc3ccc(F)c(F)c3F)n1)CN(C)CC2` [Example 4-13, 2-[(6-methoxy-2-methyl-1,2,3,4-tetrahydroisoquinolin-7-yl)amino]-4-[(2,3,4-trifluorophenyl)amino] pyrimidine-5-carboxamide], the IC50 stood at 2.4 nM.

Regarding `CC(C)c1cccc(Nc2ncc(C(N)=O)c(Nc3cccc4c3CCNC4=O)n2)c1` [Example 25-28, 4-[(1-oxo-1,2,3,4-tetrahydroisoquinolin-5-yl)amino]-2-{[3-(propan-2-yl)phenyl]amino}pyrimidine-5-carboxamide], half-maximal inhibition (IC50) was put at 3.72 nM.

The compound `COc1cc2c(cc1Nc1ncc(C(N)=O)c(NCc3ccc(C#N)cc3)n1)CN(C)CC2` [Example 26-59, 4-{[(4-cyanophenyl)methyl]amino}-2-[(6-methoxy-2-methyl-1,2,3,4-tetrahydroisoquinolin-7-yl)amino]pyrimidine-5-carboxamide] gave an IC50 of 48.3 nM.

Compound `NC(=O)c1cnc(Nc2cnn(CC3CC3)c2)nc1Nc1cccc2c1CCNC2=O` [Example 7-43, 2-{[1-(cyclopropylmethyl)-1H-pyrazol-4-yl]amino}-4-[(1-oxo-1,2,3,4-tetrahydroisoquinolin-5-yl)amino]pyrimidine-5-carboxamide] came in with an IC50 of 4.25 nM.

Compound `Cn1cc(Nc2ncc(C(N)=O)c(Nc3cccc4c3CCNC4)n2)cn1` [Example 7-12, 2-[(1-methyl-1H-pyrazol-4-yl)amino]-4-[(1,2,3,4-tetrahydroisoquinolin-5-yl)amino]pyrimidine-5-carboxamide] gave an IC50 of 1.86 nM.

In turn, `COc1cc2c(cc1Nc1ncc(C(N)=O)c(Nc3cccc4c3OC(C)(C)C4)n1)CN(C)CC2` [Example 7-14, 4-[(2,2-dimethyl-2,3-dihydro-1-benzofuran-7-yl)amino]-2-[(6-methoxy-2-methyl-1,2,3,4-tetrahydroisoquinolin-7-yl)amino]pyrimidine-5-carboxamide] registered an IC50 of 0.19 nM.

For `COCC(=O)N1CCc2cc(OC)c(Nc3ncc(C(N)=O)c(Nc4ccccc4Br)n3)cc2C1` [Example 12-5, 4-[(2-bromophenyl)amino]-2-{[6-methoxy-2-(methoxyacetyl)-1,2,3,4-tetrahydroisoquinolin-7-yl]amino}pyrimidine-5-carboxamide], half-maximal inhibition (IC50) was put at 112 nM.

Compound `Cc1ccc(C)c(Nc2ncc(C(N)=O)c(Nc3cccc4c3CCNC4=O)n2)c1` [Example 25-36, 2-[(2,5-dimethylphenyl)amino]-4-[(1-oxo-1,2,3,4-tetrahydroisoquinolin-5-yl)amino]pyrimidine-5-carboxamide] returned an IC50 of 169 nM.

Consider `Cc1cccc(F)c1Nc1nc(Nc2cnn(CC(C)(C)O)c2)ncc1C(N)=O` [Example 4-23, 4-[(2-fluoro-6-methylphenyl)amino]-2-{[1-(2-hydroxy-2-methylpropyl)-1H-pyrazol-4-yl]amino}pyrimidine-5-carboxamide], for which it took 443 nM to reach half-maximal inhibition (IC50).

Compound `COc1cc2c(cc1Nc1ncc(C(N)=O)c(Nc3ccccc3C(F)(F)F)n1)CN(C)C(C)C2` (racemic) [Example 23-3, (RAC)-2-((6-methoxy-2,3-dimethyl-1,2,3,4-tetrahydroisoquinolin-7-yl)amino)-4-((2-(trifluoromethyl)phenyl)amino)pyrimidine-5-carboxamide] displayed an IC50 of 0.28 nM.

Compound `COc1cc2c(cc1Nc1ncc(C(N)=O)c(Nc3c(F)cc(I)cc3F)n1)CNCC2` [Example 9-12, 4-(2,6-difluoro-4-iodoanilino)-2-[(6-methoxy-1,2,3,4-tetrahydroisoquinolin-7-yl)amino]pyrimidine-5-carboxamide] returned a concentration for half-maximal inhibition (IC50) of 1.83 nM.

`COc1ccc(S(C)(=O)=O)cc1Nc1ncc(C(N)=O)c(Nc2cccc3c2CCNC3)n1` [Example 7-63, 2-{[2-methoxy-5-(methylsulfonyl)phenyl]amino}-4-[(1,2,3,4-tetrahydroisoquinolin-5-yl)amino]pyrimidine-5-carboxamide] showed an IC50 of 103 nM.

Turning to `COc1cc2c(cc1Nc1ncc(C(N)=O)c(Nc3cccc(CNC(=O)OC(C)(C)C)c3)n1)CN(C)CC2` [Example 2-1, tert-butyl {[3-({5-carbamoyl-2-[(6-methoxy-2-methyl-1,2,3,4-tetrahydroisoquinolin-7-yl)amino]pyrimidin-4-yl}amino)phenylmethyl} carbamate], the half-inhibitory concentration (IC50) was found to be 1.59 nM.

The record behind these values is patent US20230416225A1, “DIAMINOPYRIMIDINE CARBOXAMIDE INHIBITORS OF HPK1” (MERCK SHARP & DOHME LLC, priority 2020, published 2023).
